From ChEMBL document CHEMBL4376804, “Review of Transient Receptor Potential Canonical (TRPC5) Channel Modulators and Diseases” (J Med Chem, 2019) come the findings set out here.

Data set [1] in a line: Protein binding in C57BL/6 mouse plasma assessed as unbound fraction by liquid chromatography-tandem mass spectrometry. It is filed as ADME, cell-free.
Data set [2] in a line: Drug concentration in C57BL/6 mouse plasma at 1 mg/kg, iv after 2 hrs by liquid chromatography-tandem mass spectrometry. The data set is classed as ADME, organism-based. The following applies: in vivo.
A short description of data set [3]: Drug concentration in C57BL/6 mouse brain at 1 mg/kg, iv after 2 hrs by liquid chromatography-tandem mass spectrometry. It is filed as ADME, organism-based. The following applies: read-out: Drug uptake.
The test system of another data set is MKN-45. Kind of data set: Antiproliferative activity against human MKN45 cells by MTT assay. The data set is classed as functional, cell-based.
Data set [4] deals with AGS. In words: Antiproliferative activity against human AGS cells by MTT assay. It is filed as functional, cell-based.
For data set [5], the system named is AGS. In words: Antitumor activity against human AGS cells xenografted in BALB/c mouse assessed as reduction in tumor growth at 200 mg/kg, ip BID administered for 2 consecutive weeks and measured every 3 days during compound dosing relative to control. It is filed as functional. The following applies: 72 h, read-out: TGI.
In data set [6] the target is TRPC6. Kind of data set: Inhibition of TRPC6 expressed in HEK293 cells coexpressing M5 receptor assessed as reduction in TRPC6-mediated calcium influx by fluorescence method.
Data set [7] deals with AGS. In words: Antitumor activity against human AGS cells xenografted in BALB/c mouse assessed as reduction in tumor growth at 100 mg/kg, ip BID administered for 2 consecutive weeks and measured every 3 days during compound dosing relative to control. It is filed as functional. The following applies: 72 h, read-out: TGI.
The target of data set [8] is T1, Short transient receptor potential channel 6 (Homo sapiens, UniProt Q9Y210).
T1 sequence (Q9Y210 whole entry): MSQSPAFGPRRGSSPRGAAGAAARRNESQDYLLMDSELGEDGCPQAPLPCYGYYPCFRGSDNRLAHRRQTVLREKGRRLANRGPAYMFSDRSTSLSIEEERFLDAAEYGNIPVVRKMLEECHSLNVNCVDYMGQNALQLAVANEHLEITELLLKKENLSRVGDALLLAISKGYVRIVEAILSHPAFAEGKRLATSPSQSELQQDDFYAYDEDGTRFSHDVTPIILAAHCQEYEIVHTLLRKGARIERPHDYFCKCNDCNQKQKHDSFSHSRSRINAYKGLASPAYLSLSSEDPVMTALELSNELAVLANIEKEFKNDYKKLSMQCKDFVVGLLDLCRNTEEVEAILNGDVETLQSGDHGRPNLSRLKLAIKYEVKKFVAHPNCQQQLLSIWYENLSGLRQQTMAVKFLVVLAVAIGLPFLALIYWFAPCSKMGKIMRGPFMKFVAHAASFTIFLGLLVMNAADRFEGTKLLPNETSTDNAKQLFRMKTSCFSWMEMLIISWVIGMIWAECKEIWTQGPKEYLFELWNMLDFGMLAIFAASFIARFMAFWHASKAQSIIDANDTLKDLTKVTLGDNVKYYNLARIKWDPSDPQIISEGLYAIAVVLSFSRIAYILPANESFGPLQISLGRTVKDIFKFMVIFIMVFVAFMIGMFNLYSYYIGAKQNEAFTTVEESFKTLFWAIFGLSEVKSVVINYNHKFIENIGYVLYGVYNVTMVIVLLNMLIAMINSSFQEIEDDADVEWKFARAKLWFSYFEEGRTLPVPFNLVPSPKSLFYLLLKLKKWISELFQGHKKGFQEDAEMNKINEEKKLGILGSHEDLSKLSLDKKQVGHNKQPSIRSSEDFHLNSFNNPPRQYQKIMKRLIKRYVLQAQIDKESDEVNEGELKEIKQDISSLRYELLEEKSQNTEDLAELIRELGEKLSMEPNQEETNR
Kind of data set: Inhibition of human TRPC6 expressed in thapsigargin pretreated HEK293 cells assessed as reduction in GPCR-induced calcium entry by fluo-4/AM dye based assay. It is filed as cell-based.

The next data set concerns the target TRPC1/TRPC5 (Homo sapiens, UniProt P48995+Q9UL62). In words: Inhibition of human TRPC5/human TRPC1 expressed in HEK293 cells assessed as reduction in englerin A-induced calcium entry incubated for 30 mins by Fluo-4AM dye based fluorescence assay. The data set is classed as cell-based.
For data set [9], the target named is T2, Short transient receptor potential channel 4 (Homo sapiens, UniProt Q9UBN4).
T2 sequence (Q9UBN4 whole entry): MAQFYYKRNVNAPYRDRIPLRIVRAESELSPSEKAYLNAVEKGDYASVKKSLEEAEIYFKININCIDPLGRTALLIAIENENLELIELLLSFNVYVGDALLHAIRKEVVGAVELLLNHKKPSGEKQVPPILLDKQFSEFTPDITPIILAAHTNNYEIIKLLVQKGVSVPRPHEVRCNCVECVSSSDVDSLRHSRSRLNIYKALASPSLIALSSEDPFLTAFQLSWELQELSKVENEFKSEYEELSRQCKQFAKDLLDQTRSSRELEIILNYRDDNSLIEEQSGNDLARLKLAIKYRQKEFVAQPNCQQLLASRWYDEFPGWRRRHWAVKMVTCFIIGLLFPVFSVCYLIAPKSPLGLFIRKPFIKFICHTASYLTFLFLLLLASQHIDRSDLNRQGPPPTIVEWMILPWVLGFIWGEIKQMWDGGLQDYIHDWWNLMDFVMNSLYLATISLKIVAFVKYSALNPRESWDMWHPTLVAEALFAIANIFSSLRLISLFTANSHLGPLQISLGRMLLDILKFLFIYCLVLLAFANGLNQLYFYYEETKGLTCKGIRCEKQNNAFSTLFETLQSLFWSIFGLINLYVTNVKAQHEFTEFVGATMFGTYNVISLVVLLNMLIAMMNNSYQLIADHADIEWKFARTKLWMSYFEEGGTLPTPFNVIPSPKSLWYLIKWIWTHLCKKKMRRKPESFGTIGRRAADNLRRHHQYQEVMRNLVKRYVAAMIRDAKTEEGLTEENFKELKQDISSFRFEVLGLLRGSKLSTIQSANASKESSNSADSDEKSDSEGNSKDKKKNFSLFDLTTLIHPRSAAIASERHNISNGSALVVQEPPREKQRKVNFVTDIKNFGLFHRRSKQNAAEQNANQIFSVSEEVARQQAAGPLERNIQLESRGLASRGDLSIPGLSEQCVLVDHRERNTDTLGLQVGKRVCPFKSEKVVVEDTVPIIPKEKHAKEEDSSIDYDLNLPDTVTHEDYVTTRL
In words: Inhibition of human TRPC4 expressed in HEK293 cells assessed as reduction in sphingosine-1-phosphate-induced current at +100 mV by patch clamp assay. The data set is classed as cell-based.

A further data set concerns the target TRPC4/TRPC1 (Homo sapiens, UniProt P48995+Q9UBN4). Kind of data set: Inhibition of human TRPC4/human TRPC1 expressed in HEK293 cells assessed as reduction in englerin A-induced calcium entry incubated for 30 mins by Fluo-4AM dye based fluorescence assay. It is filed as cell-based.
The target in data set [10] is T2, Short transient receptor potential channel 4. Kind of data set: Inhibition of human TRPC4 expressed in HEK293 cells assessed as reduction in englerin A-induced calcium entry incubated for 30 mins by Fluo-4AM dye based fluorescence assay. It is filed as cell-based.
Data set [11] has the same target. In words: Inhibition of human TRPC4 expressed in HEK293 cells assessed as reduction in sphingosine-1-phosphate-induced current at -100 mV by patch clamp assay. The data set is classed as cell-based.
A further data set addresses ORAI1/STIM1 (Rattus norvegicus, UniProt P84903+Q5M848). Kind of data set: Inhibition of ORAI/STIM1 in thapsigargin treated rat RBL2H3 cells assessed as reduction in store-operated calcium entry after 5 mins by fura-2-AM dye based assay. It is filed as cell-based.
The target of data set [12] is T3, Short transient receptor potential channel 3 (Homo sapiens, UniProt Q13507).
T3 sequence (Q13507 whole entry): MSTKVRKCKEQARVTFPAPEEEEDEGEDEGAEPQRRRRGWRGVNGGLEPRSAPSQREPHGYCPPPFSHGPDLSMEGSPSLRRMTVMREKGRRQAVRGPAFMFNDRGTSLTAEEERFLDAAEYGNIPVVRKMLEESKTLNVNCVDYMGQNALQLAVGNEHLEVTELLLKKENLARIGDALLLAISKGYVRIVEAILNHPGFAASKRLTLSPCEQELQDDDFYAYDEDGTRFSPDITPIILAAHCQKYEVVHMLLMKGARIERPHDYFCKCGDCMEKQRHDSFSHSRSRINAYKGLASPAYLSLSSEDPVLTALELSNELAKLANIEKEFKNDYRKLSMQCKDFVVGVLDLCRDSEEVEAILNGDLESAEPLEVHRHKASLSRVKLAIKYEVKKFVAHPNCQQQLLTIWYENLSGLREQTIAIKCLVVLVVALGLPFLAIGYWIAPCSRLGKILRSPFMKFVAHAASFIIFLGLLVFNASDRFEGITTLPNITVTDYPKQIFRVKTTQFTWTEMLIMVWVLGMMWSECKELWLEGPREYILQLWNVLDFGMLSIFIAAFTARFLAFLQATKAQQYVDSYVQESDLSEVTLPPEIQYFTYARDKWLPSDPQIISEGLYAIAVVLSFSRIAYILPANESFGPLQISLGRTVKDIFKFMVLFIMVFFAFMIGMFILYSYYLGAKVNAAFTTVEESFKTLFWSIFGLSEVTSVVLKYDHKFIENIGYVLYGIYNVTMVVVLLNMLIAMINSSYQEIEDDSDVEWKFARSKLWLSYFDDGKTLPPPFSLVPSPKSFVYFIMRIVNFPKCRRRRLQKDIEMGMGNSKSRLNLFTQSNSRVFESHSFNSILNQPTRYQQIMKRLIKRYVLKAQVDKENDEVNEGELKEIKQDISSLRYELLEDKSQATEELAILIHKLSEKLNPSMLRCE
Kind of data set: Inhibition of YFP-tagged TRPC3 (unknown origin) expressed in HEK293 cells assessed as reduction carbhocol-induced receptor operated Calcium influx after 5 mins by fura-2-AM dye based assay. It is filed as cell-based.

Data set [13] addresses T4, Short transient receptor potential channel 5 (Homo sapiens, UniProt Q9UL62).
T4 sequence (Q9UL62 whole entry): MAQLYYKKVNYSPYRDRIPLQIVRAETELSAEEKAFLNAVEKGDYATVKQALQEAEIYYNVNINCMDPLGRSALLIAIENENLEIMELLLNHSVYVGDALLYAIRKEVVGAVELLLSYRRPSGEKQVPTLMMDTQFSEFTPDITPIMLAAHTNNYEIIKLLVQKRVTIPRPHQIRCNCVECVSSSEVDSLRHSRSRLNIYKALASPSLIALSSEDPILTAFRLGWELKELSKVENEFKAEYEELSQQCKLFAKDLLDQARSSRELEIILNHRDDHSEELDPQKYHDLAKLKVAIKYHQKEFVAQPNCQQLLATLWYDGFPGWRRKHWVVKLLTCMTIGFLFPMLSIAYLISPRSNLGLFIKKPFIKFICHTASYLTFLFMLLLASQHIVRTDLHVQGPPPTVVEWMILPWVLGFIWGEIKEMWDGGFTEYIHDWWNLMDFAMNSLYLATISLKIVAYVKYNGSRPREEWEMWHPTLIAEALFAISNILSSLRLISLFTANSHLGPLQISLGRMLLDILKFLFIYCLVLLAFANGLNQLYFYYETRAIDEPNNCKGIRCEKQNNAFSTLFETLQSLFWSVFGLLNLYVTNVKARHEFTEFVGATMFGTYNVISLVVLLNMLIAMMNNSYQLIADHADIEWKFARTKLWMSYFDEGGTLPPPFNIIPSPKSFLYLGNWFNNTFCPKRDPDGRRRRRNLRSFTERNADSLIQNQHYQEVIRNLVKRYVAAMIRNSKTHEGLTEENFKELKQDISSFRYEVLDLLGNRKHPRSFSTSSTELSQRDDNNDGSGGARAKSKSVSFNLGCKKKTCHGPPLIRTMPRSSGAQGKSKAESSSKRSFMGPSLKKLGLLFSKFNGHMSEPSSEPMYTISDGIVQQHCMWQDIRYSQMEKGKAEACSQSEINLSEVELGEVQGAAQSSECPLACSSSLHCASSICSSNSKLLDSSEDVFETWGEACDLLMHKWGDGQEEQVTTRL
Kind of data set: Inhibition of TRPC5 (unknown origin).

Data set [14] is described as follows: Inhibition of ORAI (unknown origin) assessed as reduction in Ang2-induced NFAT translocation. Set-up: species or system Homo sapiens.
The target of data set [15] is T3, Short transient receptor potential channel 3. In words: Inhibition of TRPC3 (unknown origin).
Data set [16] has as its target TRPC6. In words: Agonist activity at TRPC6 expressed in HEK293 cells coexpressing M5 receptor assessed as induction of TRPC6-mediated calcium influx by fluorescence method.

ORAI1/STIM1, sequence (P84903 whole entry): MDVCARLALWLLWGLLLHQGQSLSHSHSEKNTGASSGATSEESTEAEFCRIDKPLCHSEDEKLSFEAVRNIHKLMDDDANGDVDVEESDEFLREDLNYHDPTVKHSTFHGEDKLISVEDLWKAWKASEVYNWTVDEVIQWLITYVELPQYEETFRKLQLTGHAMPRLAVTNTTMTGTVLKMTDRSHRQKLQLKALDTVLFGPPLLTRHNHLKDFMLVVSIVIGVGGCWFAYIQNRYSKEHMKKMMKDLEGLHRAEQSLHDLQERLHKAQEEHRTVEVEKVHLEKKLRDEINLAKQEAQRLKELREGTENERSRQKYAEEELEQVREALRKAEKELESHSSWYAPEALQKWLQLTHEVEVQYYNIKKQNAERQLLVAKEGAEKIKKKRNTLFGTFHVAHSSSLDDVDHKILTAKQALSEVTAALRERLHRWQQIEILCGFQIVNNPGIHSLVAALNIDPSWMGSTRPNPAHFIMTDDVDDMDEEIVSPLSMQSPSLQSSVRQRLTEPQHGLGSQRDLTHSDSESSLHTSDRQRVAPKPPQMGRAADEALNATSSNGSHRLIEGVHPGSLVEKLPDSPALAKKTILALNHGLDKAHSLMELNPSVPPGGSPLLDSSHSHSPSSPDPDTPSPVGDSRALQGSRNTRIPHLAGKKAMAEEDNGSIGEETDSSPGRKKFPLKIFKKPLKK
ORAI1/STIM1, sequence (Q5M848 whole entry): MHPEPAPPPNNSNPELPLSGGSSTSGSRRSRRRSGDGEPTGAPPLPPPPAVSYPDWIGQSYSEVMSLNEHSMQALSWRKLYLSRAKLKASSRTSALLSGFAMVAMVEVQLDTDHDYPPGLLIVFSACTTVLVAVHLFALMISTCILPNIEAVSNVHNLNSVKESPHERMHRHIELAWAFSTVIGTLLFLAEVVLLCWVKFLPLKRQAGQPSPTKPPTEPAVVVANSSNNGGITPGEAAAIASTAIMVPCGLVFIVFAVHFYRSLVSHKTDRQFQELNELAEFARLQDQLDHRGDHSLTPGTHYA
TRPC4/TRPC1, sequence (P48995 whole entry, one chain of several): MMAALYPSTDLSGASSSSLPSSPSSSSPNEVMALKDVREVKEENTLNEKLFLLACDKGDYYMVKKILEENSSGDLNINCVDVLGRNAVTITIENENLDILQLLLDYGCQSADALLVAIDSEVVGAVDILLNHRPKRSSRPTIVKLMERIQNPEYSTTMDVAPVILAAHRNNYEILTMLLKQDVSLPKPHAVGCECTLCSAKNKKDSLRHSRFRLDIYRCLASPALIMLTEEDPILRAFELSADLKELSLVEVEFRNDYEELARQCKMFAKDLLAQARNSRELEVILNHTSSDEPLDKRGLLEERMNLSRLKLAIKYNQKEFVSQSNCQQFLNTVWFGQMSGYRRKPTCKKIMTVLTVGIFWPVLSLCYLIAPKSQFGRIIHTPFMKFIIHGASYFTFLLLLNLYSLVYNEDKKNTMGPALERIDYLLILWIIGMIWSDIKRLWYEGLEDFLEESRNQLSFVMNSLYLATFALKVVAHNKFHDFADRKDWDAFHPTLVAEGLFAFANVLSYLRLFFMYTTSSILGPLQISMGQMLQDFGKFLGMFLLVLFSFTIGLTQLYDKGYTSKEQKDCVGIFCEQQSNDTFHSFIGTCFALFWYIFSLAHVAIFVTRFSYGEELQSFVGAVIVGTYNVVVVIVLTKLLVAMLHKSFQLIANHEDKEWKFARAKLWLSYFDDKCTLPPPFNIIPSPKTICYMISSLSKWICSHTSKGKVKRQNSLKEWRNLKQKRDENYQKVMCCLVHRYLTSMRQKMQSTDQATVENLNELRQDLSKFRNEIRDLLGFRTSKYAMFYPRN
TRPC1/TRPC5, sequence (P48995 whole entry, one chain of several): as above

Turning to `Cn1c(=O)n(CCCO)c(=O)c2c1nc(Oc1cccc(Cl)c1)n2Cc1ccc(Cl)cc1`, the Fu in data set [1] amounted to 0.4%. For the same compound, the Cp in data set [2] was 299 nmol/kg. For the same compound, the concentration at 2 h in data set [3] was 339 nM.
Take `CCOC(=O)N1CCC(C)(c2cc(O)n3nc(C)c(-c4ccc(C(F)(F)F)cc4)c3n2)CC1`: the IC50 in the data set on MKN-45 amounted to 18500 nM; in the data set on AGS [4], 17100 nM; at TRPC6 [6], 1000 nM. In addition, the inhibition in vivo at 200 mg/kg in the data set on AGS [5] is 61.5%. Besides, the inhibition in vivo at 100 mg/kg with AGS [7] was 38.5%.
As for `C=C[C@](C)(O)CC[C@H]1C(=C)C[C@H](O)[C@H]2C(C)(C)CCC[C@]12C`, in data set [8], the IC50 amounted to 1570 nM.
As for `Cn1c(=O)n(CCCO)c(=O)c2c1nc(Oc1cccc(OC(F)(F)F)c1)n2Cc1ccc(Cl)cc1` [ZERENCOTREP], the IC50 on TRPC1/TRPC5 was 0.19 nM; in data set [9], 0.03 nM; at TRPC4/TRPC1, 0.033 nM; in data set [10], 0.34 nM; in [11] it was 0.012 nM.
`Cc1nnsc1C(=O)Nc1ccc(-n2nc(C(F)(F)F)cc2C(F)(F)F)cc1`: the figures for the IC50 (on ORAI1/STIM1; in [12]; in data set [13]) were 590 nM, 4210 nM and 300 nM, respectively.
As for `CCOC(=O)c1cnn(-c2ccc(NC(=O)C(Cl)=C(Cl)Cl)cc2)c1C(F)(F)F`, the IC50 at ORAI1/STIM1 was determined as 540 nM; in data set [14] it was 50 nM; in data set [15], 700 nM; in data set [12], 540 nM.
For the compound `CCOC(=O)N1CCC(c2cc(O)n3nc(C)c(-c4ccc(F)cc4)c3n2)CC1`, the EC50 on TRPC6 [16] was determined as 4700 nM.
